Measured values taken from patent US6667157B1, “Compositions and methods for the abrogation of cellular proliferation utilizing the human immunodeficiency virus VPR protein” (priority 1994, dated 2003).

How the values were obtained:
HIV LTR = assay: LTR-CAT assay in RD cells transfected with pBennCAT; format: cell-based, HIV-1; conditions: for increase in CAT activity over the controls: agent added to medium of LTR-CAT transfected RD cells, harvested 48 hours later
Procedure: Induction of the HIV-LTR was measured as a function of a reporter gene (CAT) function. pBennCAT, an LTR-CAT encoding construct, obtained from M. Martin, through the NIH ARRRP was used. The levels of CAT protein were measured using a CAT ELISA capture assay (Boehringer Mannheim), following manufacturer's specifications. The levels of CAT activity were measured by a chloramphenicol acetyltransferase assay, according to published procedures (Gorman, et al., 1982, The Rous sarcoma virus long terminal repeat is a strong promoter when introduced into a variety of eukaryotic cells by DNA mediated transfection. Proc. Natl. Acad. Sci. USA. 79, 6777-6781). Briefly, RD cells were transfected with pBennCAT (Gendelman, 1986, Trans-activation of the Human immunodeficiency virus long terminal repeat sequence by DNA viruses. Proc. Natl. Acad. Sci. USA. 83, 9759-9763), using DOTAP. Cells were washed 12 hours later and new medium, containing the test reagents was added to the cell monolayers. 48 hours later, cells were washed three times with Ca+2/Mg+2 free PBS. Cells were then scraped off the plate, and collected with 1 ml PBS. Cell pellets were lysed by resuspending them in 100 μl 0.25M Tris, pH 7.8, and undergoing three freeze-thaw cycles using an ethanol-dry ice bath, and a 37° C. water bath. Lysates were spun at 12,000 G for 5 minutes and samples were stored at −20° C. until they were used. The CAT reaction was set up using 5 μl C^14 chloramphenicol (40-50 mCi/mmole), 70 μl ddH2O, 35 μl 1M Tris, pH 7.8, 20 μl 4 mM acetyl Coa (Pharmacia), 20 μl cell lysate. The reactions were incubated at 37° C. for an hour, and subsequently extracted with 1 ml ethyl acetate. After resuspension in 20 μl ethyl acetate, samples were spotted on the silica gel TLC plates (Whatman), and developed in chloroform:methanol (95:5); ascending. Gels were dried and exposed to film (Kodak XAR) overnight at room temperature. The panel of HIV-1 LTR/CAT mutants were obtained from Dr. Joseph Stevens, through the NIH ARRRP. pGRE5/CAT was obtained from United States Biochemicals.
The possibility that activation of the GR pathway could play a central role in the viral transcription process was considered. To test this, RD cells were transfected with an LTR-CAT encoding plasmid (pBennCAT) (Gendelman, 1986, supra), without selection. 12 hours later, the cell monolayers were washed and fresh medium containing the test reagents was added to the cultures, and 48 hours later the cells were harvested. In these studies, the co-transfection of a vpr encoding plasmid with the LTR-CAT encoding plasmid produced an increase in CAT activity of 5-10 fold over the controls, as has been previously reported. […] Vpr protein was detected in the tissue culture media of these cells, as assessed by capture ELISA.

HIV-1 NL43 Δvpr = assay: Complementation in trans of HIV-1 NL43 Δvpr in nonproductively infected U937 cells (virus production); format: cell-based; conditions: for complementation in trans of HIV-1 NL43 Δvpr virus: agent added to tissue culture medium of nonproductively infected U937 cells
Procedure: (§1) The following cell lines were obtained from the American Type Culture Collection; TE671 human embryonal rhabdomyosarcoma (ATCC HTB139), A673 embryonal rhabdomyosarcoma (ATCC CRL 1598), D17 canine osteosarcoma (ATCC CCL183), HOS human osteosarcoma (ATCC CRL 1543), U373 human glioblastoma (ATCC HTB17), SK-N-MC neuroblastoma (ATCC HTB10). Two additional glioblastoma lines were kindly provided by the Medical Research Council (MRC), England, (HT17 and HT16). U87MG (HTB14) is a glial cell line obtained from the University of Pennsylvania Cell Center. RD rhabdomyosarcoma cells were provided by Dr. A. Srinivasan. The T lymphocytic cells H9 and SupT-I were obtained from the University of Pennsylvania Cell Center, and KG-1 was obtained from Dr. G. Trinchieri. The murine NIH 3T3 line was obtained from ATCC. BSC-1, CV-1 and COS cell lines were obtained Dr. B. Moss. Primary PBL as well as primary monocytes/macrophages were isolated as in Levy, et al. 1994b, supra. All non-hematopoietic cells were cultured in DMEM with 10% heat inactivated fetal calf serum, penicillin/streptomycin, I-glutamine, Hepes (25 mM) and sodium pyruvate. Hematopoietic cells were cultured in RPMl 1640 as above except using 10% autologous human serum. Virus were prepared as described in Levy, et al., 1994b, supra; Levy, et al., 1994a, supra, which are incorporated herein by reference.
The rabbit anti-vpr peptide serum (aa 2-21, “808”) was obtained from Bryan Cullen through the NIH ARRRP. The human anti-gag p24 (V7.8) was obtained from Ronald Kennedy through the NIH ARRRP. The sheep anti-p24 was obtained from the FDA through the NIH ARRRP. […]
Such nonproductively infected cells can be rescued for p24 production by addition of exogenous vpr protein (Levy, et al., 1994a, supra; Levy, et al., 1994b, supra). […] When the nonproductively infected U937 cells described above were exposed to vpr protein, rip-1 translocated 12 hours later, and virus was first detected in the media 36 hours after the initial exposure to vpr. […]

HIV-1 NL43 = assay: Virus production by HIV-1 NL43 infected U937 cells; format: cell-based
Procedure: as §1, with “reference. […]” for “reference.”

rip-1 = rip-1 cytoplasmic to nuclear translocation (cellular fractionation, vpr-ligand blot); format: cell-based; conditions: for nuclear translocation of rip-1: exposure of cells to agent, steroids at 10^−6M
Procedure: 3×10^6 cells were washed twice in PBS, and lysed in 200 μl of lysis buffer (150 mM NaCl, 50 mM Tris, pH 8.0, 0.5% Triton X-100, plus protease inhibitors: aprotinin, leupeptin, pepstatin A, each at 2 μg/ml; PMSF, 1 mM, and EDTA, 1 mM). Cell suspension was incubated on ice for 10 minutes with frequent vortexing, and centrifuged at 12000 g for 6 minutes. The soluble, as well as the insoluble fractions were run on 12% SDS-PAGE, and transferred to PVDF membranes (Millipore), as described. Membranes were blocked with 5% non fat dry milk, in TBS supplemented with 0.05% Tween-20. Blocked membranes were incubated with either purified vpr protein (approximately 50 ng/ml) or an irrelevant protein. These membranes were then incubated with 808 rabbit anti vpr antiserum Levy, et al. 1994b, supra, followed by I^125 protein G (NEN), and exposed to film for at least 12 hours at −80° C.

Compound | increase in CAT activity over the controls (HIV LTR) | complementation in trans of HIV-1 NL43 Δvpr virus (HIV-1 NL43 Δvpr) | nuclear translocation of rip-1 (rip-1) | also measured
C[C@@H]1C[C@H]2[C@@H]3CCC4=CC(=O)C=C[C@]4(C)[C@@]3(F)[C@@H](O)C[C@]2(C)[C@@]1(O)C(=O)CO [Dexamethasone] | ca. 50 fold |  |  | 
CC#C[C@]1(O)CC[C@H]2[C@@H]3CCC4=CC(=O)CCC4=C3[C@@H](c3ccc(N(C)C)cc3)C[C@@]21C [mifepristone] |  |  |  | effect on increase in CAT activity stimulated by vpr protein or steroids (HIV LTR; cultures supplemented with mifepristone): inhibited; effect on increase in CAT activity in cells cotransfected with vpr encoding plasmid and LTR-CAT plasmid (HIV LTR; mifepristone): blocked; effect on transcomplementation of HIV-1 NL43 Δvpr infected U937 cells by vpr protein (HIV-1 NL43 Δvpr; mifepristone treatment): abolished; levels of virus produced, lower than the untreated cultures (HIV-1 NL43; HIV-1 infected cells exposed to mifepristone, 10^−6M): about 70%; inhibition of the enhancement in virus production by addition of vpr protein (HIV-1 NL43; infected cells plus vpr protein, mifepristone 10^−6M): 80-90 % inhibition; effect on vpr induced translocation of rip-1 (rip-1; mifepristone 10^−6M): inhibited; effect on rip-1 nuclear translocation induced by Dexamethasone and Hydrocortisone (rip-1; mifepristone added to culture medium, 10^−6M): blocked
cyclodextrin |  | not affected | failed to induce the nuclear translocation of rip-1 | 
CCCCCCCCCCCCCC(=O)O[C@@H]1[C@@H](C)[C@@]2(O)[C@@H](C=C(CO)C[C@]3(O)C(=O)C(C)=C[C@@H]23)[C@@H]2C(C)(C)[C@]12OC(C)=O [PMA] |  |  | not | 
C[C@]12CCC(=O)C=C1CC[C@@H]1[C@@H]2[C@@H](O)C[C@@]2(C)[C@H]1CC[C@]2(O)C(=O)CO [Hydrocortisone] | ca. 50 fold | complemented in trans | induced the nuclear translocation of rip-1 | 
